Measurements: patent publication US9271978B2 (Zenith Epigenetics Corp., priority 2012, dated 2016)

Columns and labels:
[1] = target: T1, Brd4 bromodomain 1 (BRD4(1)) (Homo sapiens, UniProt O60885); assay: Inhibition of tetra-acetylated histone H4 binding to Brd4 bromodomain 1 (TR-FRET); parameters: key: Active: Compounds with an IC50 value less than 30 μM were deemed to be active.; Not Active: Compounds with an IC50 value less than 30 μM were deemed to be active; conditions: tetra-acetylated histone H4 peptide, active = IC50 <30 μM
T1 construct: Illustrative results with the first bromodomain of Brd4; made in house; host or cells: E. coli BL21 (DE3)
Procedure: (§1) Proteins were cloned and overexpressed with a N-terminal 6×His tag, then purified by nickel affinity followed by size exclusion chromatography. Briefly, E. coli BL21 (DE3) cells were transformed with a recombinant expression vector encoding N-terminally Nickel affinity tagged bromodomains from Brd2, Brd3, Brd4. Cell cultures were incubated at 37° C. with shaking to the appropriate density and induced overnight with IPTG. The supernatant of lysed cells was loaded onto Ni-IDA column for purification. Eluted protein is pooled, concentrated and further purified by size exclusion chromatography. Fractions representing monomeric protein were pooled, concentrated, aliquoted, and frozen at −80° C. for use in subsequent experiments.
(§2) Binding of tetra-acetylated histone H4 and BET bromodomains was confirmed by a Time Resolved Fluorescence Resonance Energy Transfer (TR-FRET) method. N-terminally His-tagged bromodomains (200 nM) and biotinylated tetra-acetylated histone H4 peptide (25-50 nM, Millipore) were incubated in the presence of Europium Cryptate-labeled streptavidin (Cisbio Cat. #610SAKLB) and XL665-labeled monoclonal anti-His antibody (Cisbio Cat. #61HISXLB) in a white 96 well microtiter plate (Greiner). For inhibition assays, serially diluted test compound was added to these reactions in a 0.2% final concentration of DMSO. Final buffer concentrations were 30 mM HEPES pH 7.4, 30 mM NaCl, 0.3 mM CHAPS, 20 mM phosphate pH 7.0, 320 mM KF, 0.08% BSA). After a 2-h incubation at room temperature, the fluorescence by FRET was measured at 665 and 620 nm by a SynergyH4 plate reader (Biotek). Illustrative results with the first bromodomain of Brd4 and the second bromodomain of Brd2 are shown below. The binding inhibitory activity was shown by a decrease in 665 nm fluorescence relative to 620 nm. IC50 values were determined from a dose response curve.

[2] = target: T2, second bromodomain of Brd2 (BRD2(2)) (Homo sapiens, UniProt P25440); assay: Inhibition of tetra-acetylated histone H4 binding to Brd2 bromodomain 2 (TR-FRET); parameters: key: Active: Compounds with an IC50 value less than 30 μM were deemed to be active.; Not Active: Compounds with an IC50 value less than 30 μM were deemed to be active; conditions: tetra-acetylated histone H4 peptide, active = IC50 <30 μM
T2 construct: made in house; host or cells: E. coli BL21 (DE3)
T2 sequence (P25440 344-453 limits assumed): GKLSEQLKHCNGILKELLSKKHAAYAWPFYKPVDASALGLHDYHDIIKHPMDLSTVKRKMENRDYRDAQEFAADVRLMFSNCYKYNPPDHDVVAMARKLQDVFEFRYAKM
Procedure: as §1, §2

| Structure (SMILES) | FRET activity (IC50 <30 μM) BRD4(1) [1] | FRET activity (IC50 <30 μM) BRD2(2) [2] |
| --- | --- | --- |
| Cc1noc(C)c1-c1ccc(=O)n(Cc2cccc(OC(F)(F)F)c2)n1 [Example 36, 6-(3,5-Dimethylisoxazol-4-yl)-2-(3-(trifluoromethoxy)benzyl)pyridazin-3(2H)-one] | Active | Active |
| Cc1noc(C)c1-c1ccc(=O)n(CC2CCOCC2)n1 [Example 37, 6-(3,5-Dimethylisoxazol-4-yl)-2-((tetrahydro-2H-pyran-4-yl)methyl)pyridazin-3(2H)-one] | Active | Active |
| Cc1noc(C)c1-c1ccc(=O)n(Cc2ccccc2OC(F)(F)F)c1 [Example 40, 5-(3,5-Dimethylisoxazol-4-yl)-1-(2-(trifluoromethoxy)benzyl)pyridin-2(1H)-one] | Active | Active |
| Cc1ccc(Cn2cc(-c3c(C)noc3C)ccc2=O)cc1 [Example 41, 5-(3,5-Dimethylisoxazol-4-yl)-1-(4-methylbenzyl)pyridin-2(1H)-one] | Active | Active |
| Cc1noc(C)c1-c1ccc(=O)n(CC2CC2)n1 [Example 45, 2-(Cyclopropylmethyl)-6-(3,5-dimethylisoxazol-4-yl)pyridazin-3(2H)-one] | Active | Active |
| Cc1noc(C)c1-c1ccc(=O)n(CC2CC2)c1 [Example 48, 1-(Cyclopropylmethyl)-5-(3,5-dimethylisoxazol-4-yl)pyridin-2(1H)-one] | Active | Active |
| Cc1oncc1-c1ccc(=O)n(Cc2ccccc2)c1 [Example 57, 1-Benzyl-5-(5-methylisoxazol-4-yl)pyridin-2(1H)-one] | Active | Active |
| O=c1ccc(-c2cnoc2)cn1Cc1ccccc1 [Example 58, 1-Benzyl-5-(isoxazol-4-yl)pyridin-2(1H)-one] | Not Active | Active |
| O=c1ccc(-c2cnsc2)cn1Cc1ccccc1 [Example 59, 1-Benzyl-5-(isothiazol-4-yl)pyridin-2(1H)-one] | Not Active | Active |
| Cc1noc(C)c1Nc1ccc(=O)n(Cc2ccccc2)n1 [Example 61] | Active | Active |
| O=c1ccc(-c2ccnc(O)c2)cn1Cc1ccccc1 [Example 62, 1-Benzyl-2′-hydroxy-[3,4′-bipyridin]-6(1H)-one] | Not Active | Active |
| Cc1noc(C)c1-c1cc(C2CC2)c(=O)n(Cc2ccccc2)c1 [Example 67, 1-Benzyl-3-cyclopropyl-5-(3,5-dimethylisoxazol-4-yl)pyridin-2(1H)-one] | Active | Active |
| Cc1noc(C)c1-c1ccc(=O)n(C(=O)c2ccc(F)cc2)c1 [Example 68, 5-(3,5-Dimethylisoxazol-4-yl)-1-(4-fluorobenzoyl)pyridin-2(1H)-one] | Active | Active |
| Cc1noc(C)c1-c1ccc(=O)n(C(=O)c2ccc(Cl)cc2)c1 [Example 69, 1-(4-Chlorobenzoyl)-5-(3,5-dimethylisoxazol-4-yl)pyridin-2(1H)-one] | Active | Active |
| Cc1noc(C)c1-c1cc(NCc2ccccc2)c(=O)n(Cc2ccccc2)c1 [Example 74, 1-Benzyl-3-(benzylamino)-5-(3,5-dimethylisoxazol-4-yl)pyridin-2(1H)-one] | Active | Active |
| Cc1noc(C)c1-c1ccc(=O)n(Cc2ccc(OC(F)(F)F)cc2)n1 [Example 76, 6-(3,5-Dimethylisoxazol-4-yl)-2-(4-(trifluoromethoxy)benzyl)pyridazin-3(2H)-one] | Active | Active |
| Cc1noc(C)c1-c1ccc(=O)n(Cc2ccc3ccccc3c2)n1 [Example 77, 6-(3,5-Dimethylisoxazol-4-yl)-2-(naphthalen-2-ylmethyl)pyridazin-3(2H)-one] | Active | Active |
| O=c1ccc(-c2cncs2)cn1Cc1ccccc1 [Example 80, 1-Benzyl-5-(thiazol-5-yl)pyridin-2(1H)-one] | Not Active | Active |
| Cc1[nH]cnc1-c1ccc(=O)n(Cc2ccccc2)c1 [Example 81, 1-Benzyl-5-(5-methyl-1H-imidazol-4-yl)pyridin-2(1H)-one] | Not Active | Active |

The next lines start with the values.

| FRET activity (IC50 <30 μM) BRD4(1) [1] | FRET activity (IC50 <30 μM) BRD2(2) [2] | Structure (SMILES) |
| --- | --- | --- |
| Active | Active | Cc1noc(C)c1-c1cc(C)c(=O)n(CC2CC2)n1 [Example 85, 2-(Cyclopropylmethyl)-6-(3,5-dimethylisoxazol-4-yl)-4-methylpyridazin-3(2H)-one] |
| Active | Active | Cc1n[nH]c(C)c1-c1ccc(=O)n(Cc2ccccc2)n1 [Example 86, 2-Benzyl-6-(3,5-dimethyl-1H-pyrazol-4-yl)pyridazin-3(2H)-one] |
| Active | Active | Cc1noc(C)c1-c1ccc(=O)n(CC2CCC2)n1 [Example 88, 2-(Cyclobutylmethyl)-6-(3,5-dimethylisoxazol-4-yl)pyridazin-3(2H)-one] |
| Active | Active | Cc1noc(C)c1-c1ccc(=O)n(Cc2c(F)cc(F)cc2F)n1 [Example 92, 6-(3,5-Dimethylisoxazol-4-yl)-2-(2,4,6-trifluorobenzyl)pyridazin-3(2H)-one] |
| Active | Not Active | Cc1noc(C)c1-c1ccc(=O)n(Cc2cnoc2)n1 [Example 97, 6-(3,5-Dimethylisoxazol-4-yl)-2-(isoxazol-4-ylmethyl)pyridazin-3(2H)-one] |
| Not Active | Active | COc1ccc(Oc2ccc(=O)n(Cc3ccccc3)n2)cc1OC [Example 100, 2-Benzyl-6-(3,4-dimethoxyphenoxy)pyridazin-3(2H)-one] |
| Active | Active | Cc1noc(C)c1-c1ccc(=O)n(C(C)(C)c2ccccc2)c1 [Example 106, 5-(3,5-Dimethylisoxazol-4-yl)-1-(2-phenylpropan-2-yl)pyridin-2(1H)-one] |
| Active | Active | Cc1noc(C)c1-c1ccc(=O)n(Cc2ccccc2)c1Cl [Example 114, 1-Benzyl-6-chloro-5-(3,5-dimethylisoxazol-4-yl)pyridin-2(1H)-one] |
| Active | Active | Cc1noc(C)c1-c1ccc(=O)n(Cc2ccccc2)c1C [Example 115, 1-Benzyl-5-(3,5-dimethylisoxazol-4-yl)-6-methylpyridin-2(1H)-one] |
